Molecular target: trypanothione reductase (TR) from T. cruzi (Trypanosoma cruzi, UniProt P28593)
Experiment: Trypanothione reductase inhibition
Assay type: biochemical
Conditions: preliminary, unpublished data

Sequence of trypanothione reductase (TR) from T. cruzi (P28593 whole entry): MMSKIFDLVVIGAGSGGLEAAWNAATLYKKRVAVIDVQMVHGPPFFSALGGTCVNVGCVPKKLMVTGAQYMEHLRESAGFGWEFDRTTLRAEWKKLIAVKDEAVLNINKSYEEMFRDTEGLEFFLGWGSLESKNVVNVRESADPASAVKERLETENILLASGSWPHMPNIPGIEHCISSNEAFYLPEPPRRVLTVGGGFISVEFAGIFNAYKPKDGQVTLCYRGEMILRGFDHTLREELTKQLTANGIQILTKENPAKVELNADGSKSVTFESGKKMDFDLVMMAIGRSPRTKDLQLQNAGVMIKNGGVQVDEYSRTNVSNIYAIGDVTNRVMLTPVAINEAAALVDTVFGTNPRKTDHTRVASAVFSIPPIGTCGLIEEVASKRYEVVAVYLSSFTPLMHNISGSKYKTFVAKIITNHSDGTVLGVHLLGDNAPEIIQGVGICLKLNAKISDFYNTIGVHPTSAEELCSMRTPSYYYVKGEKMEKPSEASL

Row | SMILES | inhibition of trypanothione reductase
1 | CN(C)CC1CCC(CN(C)C)C1=O (centres unmarked) [NC884] | time-dependent irreversible inhibition
2 | CN(C)CC1CCCC(CN(C)C)C1=O (centres unmarked) [NC901] | time-dependent irreversible inhibition

Source: US9669016B2, “Antiparasitic effect of Bis[3,5-Bis(Benzylidene)-4-Oxo-1-Piperidinyl]amide Derivatives” (priority 2014, dated 2017)
